The values below are quoted from earlier work in US20110008412A1, “Oral Formulations for 5-HT-Receptor Agonists, Uses and Methods of Treatment Employing The Same” (CIPLA LIMITED, priority 2003, published 2011).

`CNS(=O)(=O)Cc1ccc2[nH]cc(CCN(C)C)c2c1` [sumatriptan, 3-[2-(dimethylamino)ethyl]-N-methyl-1H-indole-5-methanesulfonamide]: the half-life entry (after subcutaneous and oral application) is recorded as “about 2 hours”. Besides, the bioavailability (injected subcutaneously) is given as 96%.
